Assay results as given in patent US12384772B2, “Inhibitors” (VIVORYON THERAPEUTICS N.V., priority 2017, dated 2025).

The compounds below were run against Glutaminyl cyclase (QC) (Homo sapiens (Human), UniProt Q16769) (assay: Glutaminyl cyclase assay, determination of IC50 values and calculation of Ki values (H-Gln-AMC substrate, pGAP auxiliary enzyme; pH 8.0 or pH 6.0)). Settings: pH 6, read-out: hQC Ki [μM] pH6.
Sequence of Glutaminyl cyclase (QC) (Q16769 29-361): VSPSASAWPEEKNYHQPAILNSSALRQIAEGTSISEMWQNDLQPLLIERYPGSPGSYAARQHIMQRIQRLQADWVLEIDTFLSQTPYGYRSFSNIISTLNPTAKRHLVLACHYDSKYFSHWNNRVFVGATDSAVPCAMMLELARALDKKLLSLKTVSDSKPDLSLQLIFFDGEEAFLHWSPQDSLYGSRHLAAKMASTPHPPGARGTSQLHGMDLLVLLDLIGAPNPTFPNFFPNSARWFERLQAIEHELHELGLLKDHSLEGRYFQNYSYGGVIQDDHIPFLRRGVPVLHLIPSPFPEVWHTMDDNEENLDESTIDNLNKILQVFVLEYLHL
Assay type: biochemical
Description: 10 mM compound stock solutions were prepared in DMSO. For IC50 determination compound stocks were serially diluted (1:3) in DMSO.
All measurements were performed with an EnSpire Perkin Elmer multimode reader using glutaminyl-7-amino-4-methylcoumarin (H-Gin-AMC) as substrate and recombinant pyroglutamyl aminopeptidase (pGAP) as auxiliary enzyme. Reactions were carried out at ambient temperature in black 96-well half area microplates. Each sample consisted of 1 μl test compound solution or solvent (DMSO) and 49 μl QC appropriately diluted in assay buffer (50 mM Tris/HCl, pH 8.0 or 50 mM MES buffer, pH=6.0). After a 10 min preincubation at ambient temperature the enzyme reaction was started by adding 50 μl of Gln-AMC-substrate/pGAP mixture in assay buffer. Final substrate concentrations were 50 and 200 μM for measurement at pH 8.0 or 6.0, respectively. Release of flourogenic AMC were recorded at excitation/emission wavelengths of 380/460 nm. Initial velocity of the enzyme reaction was calculated by linear regression of the first 10 data points using the Enspire Manager software. Final evaluation and calculation of IC50s were performed using GraphPad Prism software.
Ki-values were calculated according to the following formula: Ki=IC50/(1+[S]/Km), where: […]
Compound `Cn1cnnc1CCCNc1ccccc1-c1ccc(F)cc1` [Comp 328, 4′-fluoro-N-[3-(4-methyl-4H-1,2,4-triazol-3-yl)propyl]-[1,1′-biphenyl]-2-amine] has a Ki of 1.97 µM. With `Nc1nnc(-c2ccc(Nc3ncccc3-c3ccc(F)cc3)cc2)s1` [Comp 521, N-[4-(5-amino-1,3,4-thiadiazol-2-yl)phenyl]-3-(4-fluorophenyl)pyridin-2-amine] the Ki was 2.69 µM. For `CCCOc1ccc(-c2ccccc2Nc2ccc(-c3nnc(N)s3)cc2)cc1` [C11, 5-(4-([2-(4-propoxyphenyl)phenyl]amino)phenyl)-1,3,4-thiadiazol-2-amine], the Ki was 2.15 µM. `Nc1nnc(SCCNS(=O)(=O)c2ccc(F)cc2)s1` [E3, N-{2-[(5-amino-1,3,4-thiadiazol-2-yl)sulfanyl]ethyl}-4-fluorobenzene-1-sulfonamide] was tested, and the Ki was 19.9 µM. In the case of `COc1ccc(-c2ccccc2NCc2ccc3[nH]cnc3c2)cc1OC` [Comp 1254, N-[(1H-1,3-benzodiazol-5-yl)methyl]-3′,4′-dimethoxy-[1,1′-biphenyl]-2-amine], the Ki was 0.12 µM. Compound `COc1ccc(-c2cnccc2NCc2ccc3[nH]cnc3c2)cc1OC` [O10, N-(1H-1,3-benzodiazol-5-ylmethyl)-3-(3,4-dimethoxyphenyl)pyridin-4-amine] has a Ki of 1.63 µM. For `Nc1nnc(CCCNc2ccccc2-c2ccc(F)cc2)s1` [Comp 93, 5-[3-({4′-fluoro-[1,1′-biphenyl]-2-yl}amino)propyl]-1,3,4-thiadiazol-2-amine], the Ki was 2.6 µM. `Nc1nnc(C2CCN(S(=O)(=O)c3ccc(F)cc3)CC2)s1` [M2, 5-[1-(4-fluorobenzenesulfonyl)piperidin-4-yl]-1,3,4-thiadiazol-2-amine] was tested, and the Ki was 1.18 µM. With `COc1ccc(-c2ccccc2NCCSc2nnc(N)s2)cc1OC` [Comp 178, 5-{[2-({3′,4′-dimethoxy-[1,1′-biphenyl]-2-yl}amino)ethyl]sulfanyl}-1,3,4-thiadiazol-2-amine] the Ki was 1.1 µM. `Fc1ccc(-c2ncccc2NCc2ccc3[nH]cnc3c2)cc1` [Comp 1252, N-(1H-1,3-benzodiazol-5-ylmethyl)-2-(4-fluorophenyl)pyridin-3-amine] was tested, and the Ki was 145 µM. For `COc1ccc(NS(=O)(=O)NCCSc2nncn2C)cc1OC` [Comp 1332, [(3,4-dimethoxyphenyl)sulfamoyl]({2-[(4-methyl-4H-1,2,4-triazol-3-yl)sulfanyl]ethyl})amine], the Ki was 13.6 µM. Work on `COc1ccc(-c2cnccc2Nc2ccc(-c3nnc(N)s3)cc2)cc1` [C6, N-[4-(5-amino-1,3,4-thiadiazol-2-yl)phenyl]-3-(4-methoxyphenyl)pyridin-4-amine] yielded a Ki of 7.16 µM. `COc1ccc(-c2cccnc2NCc2ccc3[nH]cnc3c2)cc1OC` [Comp 1262, N-(1H-1,3-benzodiazol-5-ylmethyl)-3-(3,4-dimethoxyphenyl)pyridin-2-amine] gave a Ki of 0.1 µM. `Fc1ccc(-c2ccccc2NCc2ccc3[nH]cnc3c2)cc1` [Comp 1226, N-[(1H-1,3-benzodiazol-5-yl)methyl]-4′-fluoro-[1,1′-biphenyl]-2-amine] showed a Ki of 5.91 µM. `COc1ccc(-c2cccnc2NCc2ccc3[nH]cnc3c2)cc1` [O5, N-(1H-1,3-benzodiazol-5-ylmethyl)-3-(4-methoxyphenyl)pyridin-2-amine] showed a Ki of 2.74 µM. Work on `COc1ccc(-c2cnccc2Nc2ccc(-c3nnc(N)s3)cc2)cc1OC` [C7, N-[4-(5-amino-1,3,4-thiadiazol-2-yl)phenyl]-3-(3,4-dimethoxyphenyl)pyridin-4-amine] yielded a Ki of 54.7 µM. With `Nc1ncc(-c2ccc(NS(=O)(=O)c3ccc(F)cc3)cc2)s1` [I1, N-[4-(2-amino-1,3-thiazol-5-yl)phenyl]-4-fluorobenzene-1-sulfonamide] the Ki was 2.93 µM. Work on `COc1ccc(-c2nccnc2NCc2ccc3[nH]cnc3c2)cc1` [O9, N-(1H-1,3-benzodiazol-5-ylmethyl)-3-(4-methoxyphenyl)pyrazin-2-amine] yielded a Ki of 1.9 µM.

Same assay, conditions: pH 8, read-out: hQC Ki [μM] pH8
`Cn1cnnc1CCCNc1ccccc1-c1ccc(F)cc1` [Comp 328, 4′-fluoro-N-[3-(4-methyl-4H-1,2,4-triazol-3-yl)propyl]-[1,1′-biphenyl]-2-amine] gave a Ki of 2.86 µM. In the case of `Nc1nnc(-c2ccc(Nc3ncccc3-c3ccc(F)cc3)cc2)s1` [Comp 521, N-[4-(5-amino-1,3,4-thiadiazol-2-yl)phenyl]-3-(4-fluorophenyl)pyridin-2-amine], the Ki was 4.27 µM. Compound `CCCOc1ccc(-c2ccccc2Nc2ccc(-c3nnc(N)s3)cc2)cc1` [C11, 5-(4-([2-(4-propoxyphenyl)phenyl]amino)phenyl)-1,3,4-thiadiazol-2-amine] has a Ki of 2.36 µM. `Nc1nnc(SCCNS(=O)(=O)c2ccc(F)cc2)s1` [E3, N-{2-[(5-amino-1,3,4-thiadiazol-2-yl)sulfanyl]ethyl}-4-fluorobenzene-1-sulfonamide] was tested, and the Ki was 26.5 µM. In the case of `COc1ccc(-c2ccccc2NCc2ccc3[nH]cnc3c2)cc1OC` [Comp 1254, N-[(1H-1,3-benzodiazol-5-yl)methyl]-3′,4′-dimethoxy-[1,1′-biphenyl]-2-amine], the Ki was 0.27 µM. `COc1ccc(-c2cnccc2NCc2ccc3[nH]cnc3c2)cc1OC` [O10, N-(1H-1,3-benzodiazol-5-ylmethyl)-3-(3,4-dimethoxyphenyl)pyridin-4-amine] showed a Ki of 0.88 µM. Compound `Nc1nnc(CCCNc2ccccc2-c2ccc(F)cc2)s1` [Comp 93, 5-[3-({4′-fluoro-[1,1′-biphenyl]-2-yl}amino)propyl]-1,3,4-thiadiazol-2-amine] has a Ki of 1100 µM. Work on `Nc1nnc(C2CCN(S(=O)(=O)c3ccc(F)cc3)CC2)s1` [M2, 5-[1-(4-fluorobenzenesulfonyl)piperidin-4-yl]-1,3,4-thiadiazol-2-amine] yielded a Ki of 1.6 µM. With `COc1ccc(-c2ccccc2NCCSc2nnc(N)s2)cc1OC` [Comp 178, 5-{[2-({3′,4′-dimethoxy-[1,1′-biphenyl]-2-yl}amino)ethyl]sulfanyl}-1,3,4-thiadiazol-2-amine] the Ki was 0.97 µM. For `Fc1ccc(-c2ncccc2NCc2ccc3[nH]cnc3c2)cc1` [Comp 1252, N-(1H-1,3-benzodiazol-5-ylmethyl)-2-(4-fluorophenyl)pyridin-3-amine], the Ki was 22 µM. In the case of `COc1ccc(NS(=O)(=O)NCCSc2nncn2C)cc1OC` [Comp 1332, [(3,4-dimethoxyphenyl)sulfamoyl]({2-[(4-methyl-4H-1,2,4-triazol-3-yl)sulfanyl]ethyl})amine], the Ki was 11.8 µM. Work on `COc1ccc(-c2cnccc2Nc2ccc(-c3nnc(N)s3)cc2)cc1` [C6, N-[4-(5-amino-1,3,4-thiadiazol-2-yl)phenyl]-3-(4-methoxyphenyl)pyridin-4-amine] yielded a Ki of 4.22 µM. `COc1ccc(-c2cccnc2NCc2ccc3[nH]cnc3c2)cc1OC` [Comp 1262, N-(1H-1,3-benzodiazol-5-ylmethyl)-3-(3,4-dimethoxyphenyl)pyridin-2-amine] showed a Ki of 0.23 µM. `COc1ccc(-c2cncnc2NCc2ccc3[nH]cnc3c2)cc1` [O8, N-(1H-1,3-benzodiazol-5-ylmethyl)-5-(4-methoxyphenyl)pyrimidin-4-amine] showed a Ki of 18.3 µM. `Fc1ccc(-c2ccccc2NCc2ccc3[nH]cnc3c2)cc1` [Comp 1226, N-[(1H-1,3-benzodiazol-5-yl)methyl]-4′-fluoro-[1,1′-biphenyl]-2-amine] was tested, and the Ki was 5.29 µM. In the case of `COc1ccc(-c2cccnc2NCc2ccc3[nH]cnc3c2)cc1` [O5, N-(1H-1,3-benzodiazol-5-ylmethyl)-3-(4-methoxyphenyl)pyridin-2-amine], the Ki was 2.41 µM. In the case of `COc1ccc(-c2cnccc2Nc2ccc(-c3nnc(N)s3)cc2)cc1OC` [C7, N-[4-(5-amino-1,3,4-thiadiazol-2-yl)phenyl]-3-(3,4-dimethoxyphenyl)pyridin-4-amine], the Ki was 7.46 µM. `COc1ccc(-c2cnccc2Nc2ccc(-c3nncn3C)cc2)cc1OC` [D7, 3-(3,4-dimethoxyphenyl)-N-[4-(4-methyl-4H-1,2,4-triazol-3-yl)phenyl]pyridin-4-amine] gave a Ki of 10.1 µM. For `Nc1ncc(-c2ccc(NS(=O)(=O)c3ccc(F)cc3)cc2)s1` [I1, N-[4-(2-amino-1,3-thiazol-5-yl)phenyl]-4-fluorobenzene-1-sulfonamide], the Ki was 2.64 µM. `COc1ccc(-c2nccnc2NCc2ccc3[nH]cnc3c2)cc1` [O9, N-(1H-1,3-benzodiazol-5-ylmethyl)-3-(4-methoxyphenyl)pyrazin-2-amine] showed a Ki of 2.21 µM.
